# In US11000033B2, “Ketone or oxime compound, and herbicide” (NISSAN CHEMICAL CORPORATION, priority 2014, dated 2021):
# Assays:
# Format in all cases: in vivo
# Abutilon theophrasti = assay: Test Example 5: herbicidal effect by foliage application, plastic box (symbol M); conditions: 320 g/ha, 3 weeks after application
# Method in brief: (§1)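 Seeds were sown in sterilized diluvial soil, covered with about 1.5 cm of soil and grown 14 days in a greenhouse at 25° C. to 30° C. An emulsifiable formulation diluted in water to a set rate was sprayed over foliage, and injury was scored 3 weeks later.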
# [1] = system: Echinochloa crus-galli var. crus-galli; assay: Test Example 5: herbicidal effect by foliage application, plastic box (symbol H); conditions: 320 g/ha, 3 weeks after application
# Method in brief: as §1
# transplanted rice plant = assay: Test Example 1: effect on crop, application before weed generation in submerged conditions (symbol a); conditions: application herbicide amount 320 g/ha
# Method in brief: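 Alluvial soil pots flooded to 4 cm water, sown with Echinochloa oryzacola, Scirpus juncoides and Monochoria vaginalis, then transplanted with 2.5 leaf stage rice seedlings; pre-emergence application. Greenhouse 25° C. to 30° C.; scored 0–5 by herbicidal ratio 3 weeks after application.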
# Setaria viridis = assay: Test Example 5: herbicidal effect by foliage application, plastic box (symbol G); conditions: 320 g/ha, 3 weeks after application
# Method in brief: as §1
# beet = assay: Test Example 5: effect on crop by foliage application, plastic box (symbol f); conditions: 320 g/ha, 3 weeks after application
# Method in brief: (§2)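 Plants were raised from seed in a greenhouse (25° C. to 30° C.) after sowing in a plastic box of sterilized diluvial soil.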
# Apera spica-venti = assay: Test Example 5: herbicidal effect by foliage application, plastic box (symbol L); conditions: 320 g/ha, 3 weeks after application
# Method in brief: as §1
# Scirpus juncoides [2] = assay: Test Example 2: herbicidal activity, application during weed generation in submerged conditions (symbol B); conditions: Table 23; application herbicide amount 320 g/ha; grade 0-5 by criteria of Test Example 1
# Method in brief: (§3)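 Treatment timing was the one- to two-leaf stage, with diluted emulsifiable compound dropped onto the paddy water (depth 4 cm) over alluvial soil. All three species grew from a mixed sowing in a 25° C. to 30° C. greenhouse. Injury was judged by eye 3 weeks on.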
# soybean = assay: Test Example 5: effect on crop by foliage application, plastic box (symbol d); conditions: 320 g/ha, 3 weeks after application
# Method in brief: as §2
# rice plant = assay: Test Example 5: effect on crop by foliage application, plastic box (symbol b); conditions: 320 g/ha, 3 weeks after application
# Method in brief: as §2
# Lolium multiflorum Lam. = assay: Test Example 5: herbicidal effect by foliage application, plastic box (symbol K); conditions: 320 g/ha, 3 weeks after application
# Method in brief: as §1
# Avena fatua = assay: Test Example 5: herbicidal effect by foliage application, plastic box (symbol I); conditions: 320 g/ha, 3 weeks after application
# Method in brief: as §1
# wheat = assay: Test Example 5: effect on crop by foliage application, plastic box (symbol e); conditions: 320 g/ha, 3 weeks after application
# Method in brief: as §2
# [3] = system: Echinochloa crus-galli var. crus-galli; assay: Test Example 3: herbicidal effect by foliage application, Wagner pot (symbol H); conditions: application herbicide amount 320 g/ha
# Method in brief: (§4)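 The compound, formulated as an emulsion and diluted with water to a predetermined rate, is applied uniformly to leaves of two-week-old seedlings growing in submerged alluvial soil at 25–30 °C. Rice is included. Each plant is assessed 3 weeks later using defined criteria.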
# Galium spurium = assay: Test Example 5: herbicidal effect by foliage application, plastic box (symbol Q); conditions: 320 g/ha, 3 weeks after application
# Method in brief: as §1
# Monochoria vaginalis [4] = assay: Test Example 1: herbicidal activity, application before weed generation in submerged conditions (symbol C); conditions: application herbicide amount 320 g/ha
# Method in brief: (§5)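 Ratings (5: ≥90%, near complete withering; 4: 70–<90%; 3: 40–<70%; 2: 20–<40%; 1: 5–<20%; 0: ≤5%) were assigned 3 weeks after the diluted emulsion was applied to the water surface of freshly sown, submerged pots.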
# Chenopodium album = assay: Test Example 5: herbicidal effect by foliage application, plastic box (symbol O); conditions: 320 g/ha, 3 weeks after application
# Method in brief: as §1
# Scirpus juncoides [5] = assay: Test Example 1: herbicidal activity, application before weed generation in submerged conditions (symbol B); conditions: application herbicide amount 320 g/ha
# Method in brief: as §5
# corn = assay: Test Example 5: effect on crop by foliage application, plastic box (symbol c); conditions: 320 g/ha, 3 weeks after application
# Method in brief: as §2
# Monochoria vaginalis [6] = assay: Test Example 2: herbicidal activity, application during weed generation in submerged conditions (symbol C); conditions: Table 23; application herbicide amount 320 g/ha; grade 0-5 by criteria of Test Example 1
# Method in brief: as §3
# rapeseed = assay: Test Example 5: effect on crop by foliage application, plastic box (symbol g); conditions: 320 g/ha, 3 weeks after application
# Method in brief: as §2
# Cyperus difformis = assay: Test Example 3: herbicidal effect by foliage application, Wagner pot (symbol E); conditions: application herbicide amount 320 g/ha
# Method in brief: as §4
# Digitaria ciliaris = assay: Test Example 5: herbicidal effect by foliage application, plastic box (symbol F); conditions: 320 g/ha, 3 weeks after application
# Method in brief: as §1
# [7] = system: Echinochloa oryzacola Vasing.; assay: Test Example 1: herbicidal activity, application before weed generation in submerged conditions (symbol A); conditions: application herbicide amount 320 g/ha
# Method in brief: as §5
# Alopecurus myosuroides = assay: Test Example 5: herbicidal effect by foliage application, plastic box (symbol J); conditions: 320 g/ha, 3 weeks after application
# Method in brief: as §1
# Veronica persica = assay: Test Example 5: herbicidal effect by foliage application, plastic box (symbol R); conditions: 320 g/ha, 3 weeks after application
# Method in brief: as §1
# [8] = system: directly sowed rice plant; assay: Test Example 3: effect on crop by foliage application, Wagner pot (symbol b); conditions: application herbicide amount 320 g/ha
# Method in brief: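 Alluvial soil in a 1/10000-are Wagner pot was flooded to a water depth of 0.1–0.5 cm. Echinochloa crus-galli var. crus-galli, Leptochloa chinensis, Cyperus difformis and rice were sown into it and grown in a greenhouse at 25–30 °C.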
# [9] = system: Echinochloa oryzacola Vasing.; assay: Test Example 2: herbicidal activity, application during weed generation in submerged conditions (symbol A); conditions: Table 23; application herbicide amount 320 g/ha; grade 0-5 by criteria of Test Example 1
# Method in brief: as §3
# Stellaria media = assay: Test Example 5: herbicidal effect by foliage application, plastic box (symbol P); conditions: 320 g/ha, 3 weeks after application
# Method in brief: as §1
# Leptochloa chinensis = assay: Test Example 3: herbicidal effect by foliage application, Wagner pot (symbol D); conditions: application herbicide amount 320 g/ha
# Method in brief: as §4
# Amaranthus retroflexus = assay: Test Example 5: herbicidal effect by foliage application, plastic box (symbol N); conditions: 320 g/ha, 3 weeks after application
# Method in brief: as §1
SMILES,"M: Abutilon theophrasti, herbicidal effect (criteria of Test Example 1) (Abutilon theophrasti)","H: Echinochloa crus-galli var. crus-galli, herbicidal effect (criteria of Test Example 1) [1]","Effect grade on crop, a: transplanted rice plant (transplanted rice plant)","G: Setaria viridis, herbicidal effect (criteria of Test Example 1) (Setaria viridis)","f: beet, effect on crop (criteria of Test Example 1) (beet)","L: Apera spica-venti, herbicidal effect (criteria of Test Example 1) (Apera spica-venti)","Herbicidal effect grade, B: Scirpus juncoides (Scirpus juncoides [2])","d: soybean, effect on crop (criteria of Test Example 1) (soybean)","b: directly sowed rice plant, effect on crop (criteria of Test Example 1) (rice plant)","K: Lolium multiflorum Lam., herbicidal effect (criteria of Test Example 1) (Lolium multiflorum Lam.)","I: Avena fatua, herbicidal effect (criteria of Test Example 1) (Avena fatua)","e: wheat, effect on crop (criteria of Test Example 1) (wheat)","herbicidal effect on H (Echinochloa crus-galli var. crus-galli), grade 0-5 [3]","Q: Galium spurium, herbicidal effect (criteria of Test Example 1) (Galium spurium)","Herbicidal effect grade, C: Monochoria vaginalis (Monochoria vaginalis [4])","O: Chenopodium album, herbicidal effect (criteria of Test Example 1) (Chenopodium album)","Herbicidal effect grade, B: Scirpus juncoides (Scirpus juncoides [5])","c: corn, effect on crop (criteria of Test Example 1) (corn)","Herbicidal effect grade, C: Monochoria vaginalis (Monochoria vaginalis [6])","g: rapeseed, effect on crop (criteria of Test Example 1) (rapeseed)",further results
CCCC=Cc1cc(C)c(C2=C(O)CC(CC(C)=NOC)C2=O)c(C)c1 (stereo not drawn) [6-071],0 (Herbicidal ratio of 5% or lower (almost no effect)),0 (Herbicidal ratio of 5% or lower (almost no effect)),0 (Herbicidal ratio of 5% or lower (almost no effect)),0 (Herbicidal ratio of 5% or lower (almost no effect)),0 (Herbicidal ratio of 5% or lower (almost no effect)),2 (Herbicidal ratio of 20% or higher and lower than 40%),0 (Herbicidal ratio of 5% or lower (almost no effect)),0 (Herbicidal ratio of 5% or lower (almost no effect)),1 (Herbicidal ratio of 5% or higher and lower than 20%),4 (Herbicidal ratio of 70% or higher and lower than 90%),0 (Herbicidal ratio of 5% or lower (almost no effect)),2 (Herbicidal ratio of 20% or higher and lower than 40%),4 (Herbicidal ratio of 70% or higher and lower than 90%),0 (Herbicidal ratio of 5% or lower (almost no effect)),0 (Herbicidal ratio of 5% or lower (almost no effect)),0 (Herbicidal ratio of 5% or lower (almost no effect)),0 (Herbicidal ratio of 5% or lower (almost no effect)),0 (Herbicidal ratio of 5% or lower (almost no effect)),0 (Herbicidal ratio of 5% or lower (almost no effect)),0 (Herbicidal ratio of 5% or lower (almost no effect)),"herbicidal effect on E, grade 0-5 (Cyperus difformis): 0 (Herbicidal ratio of 5% or lower (almost no effect)); F: Digitaria ciliaris, herbicidal effect (criteria of Test Example 1) (Digitaria ciliaris): 0 (Herbicidal ratio of 5% or lower (almost no effect)); Herbicidal effect grade, A: Echinochloa oryzacola Vasing. [7]: 4 (Herbicidal ratio of 70% or higher and lower than 90%); J: Alopecurus myosuroides, herbicidal effect (criteria of Test Example 1) (Alopecurus myosuroides): 3 (Herbicidal ratio of 40% or higher and lower than 70%); R: Veronica persica, herbicidal effect (criteria of Test Example 1) (Veronica persica): 0 (Herbicidal ratio of 5% or lower (almost no effect)); effect on crop b (directly sowed rice plant), grade 0-5 [8]: 1 (Herbicidal ratio of 5% or higher and lower than 20%); Herbicidal effect grade, A: Echinochloa oryzacola Vasing. [9]: 2 (Herbicidal ratio of 20% or higher and lower than 40%); P: Stellaria media, herbicidal effect (criteria of Test Example 1) (Stellaria media): 0 (Herbicidal ratio of 5% or lower (almost no effect)); herbicidal effect on D (Leptochloa chinensis), grade 0-5 (Leptochloa chinensis): 5 (Herbicidal ratio of 90% or more (almost completely withered)); N: Amaranthus retroflexus, herbicidal effect (criteria of Test Example 1) (Amaranthus retroflexus): 0 (Herbicidal ratio of 5% or lower (almost no effect))"
CON=C(C)CC1CC(O)=C(c2c(C)cc(C=Cc3ccccc3)cc2C)C1=O (stereo not drawn) [6-072],0 (Herbicidal ratio of 5% or lower (almost no effect)),1 (Herbicidal ratio of 5% or higher and lower than 20%),0 (Herbicidal ratio of 5% or lower (almost no effect)),4 (Herbicidal ratio of 70% or higher and lower than 90%),0 (Herbicidal ratio of 5% or lower (almost no effect)),0 (Herbicidal ratio of 5% or lower (almost no effect)),0 (Herbicidal ratio of 5% or lower (almost no effect)),0 (Herbicidal ratio of 5% or lower (almost no effect)),2 (Herbicidal ratio of 20% or higher and lower than 40%),2 (Herbicidal ratio of 20% or higher and lower than 40%),3 (Herbicidal ratio of 40% or higher and lower than 70%),0 (Herbicidal ratio of 5% or lower (almost no effect)),5 (Herbicidal ratio of 90% or more (almost completely withered)),0 (Herbicidal ratio of 5% or lower (almost no effect)),0 (Herbicidal ratio of 5% or lower (almost no effect)),0 (Herbicidal ratio of 5% or lower (almost no effect)),0 (Herbicidal ratio of 5% or lower (almost no effect)),3 (Herbicidal ratio of 40% or higher and lower than 70%),0 (Herbicidal ratio of 5% or lower (almost no effect)),0 (Herbicidal ratio of 5% or lower (almost no effect)),"herbicidal effect on E, grade 0-5 (Cyperus difformis): 0 (Herbicidal ratio of 5% or lower (almost no effect)); F: Digitaria ciliaris, herbicidal effect (criteria of Test Example 1) (Digitaria ciliaris): 0 (Herbicidal ratio of 5% or lower (almost no effect)); Herbicidal effect grade, A: Echinochloa oryzacola Vasing. [7]: 4 (Herbicidal ratio of 70% or higher and lower than 90%); J: Alopecurus myosuroides, herbicidal effect (criteria of Test Example 1) (Alopecurus myosuroides): 0 (Herbicidal ratio of 5% or lower (almost no effect)); R: Veronica persica, herbicidal effect (criteria of Test Example 1) (Veronica persica): 0 (Herbicidal ratio of 5% or lower (almost no effect)); effect on crop b (directly sowed rice plant), grade 0-5 [8]: 0 (Herbicidal ratio of 5% or lower (almost no effect)); Herbicidal effect grade, A: Echinochloa oryzacola Vasing. [9]: 1 (Herbicidal ratio of 5% or higher and lower than 20%); P: Stellaria media, herbicidal effect (criteria of Test Example 1) (Stellaria media): 0 (Herbicidal ratio of 5% or lower (almost no effect)); herbicidal effect on D (Leptochloa chinensis), grade 0-5 (Leptochloa chinensis): 5 (Herbicidal ratio of 90% or more (almost completely withered)); N: Amaranthus retroflexus, herbicidal effect (criteria of Test Example 1) (Amaranthus retroflexus): 0 (Herbicidal ratio of 5% or lower (almost no effect))"
